# Experimental data reported in patent US20220275025A1, “BONE REMODELING REGULATORY PEPTIDES AND APPLICATION THEREOF” (THE SECOND XIANGYA HOSPITAL OF CENTRAL SOUTH UNIVERSITY, priority 2019, published 2022).
# Square brackets hold non-standard residues; d marks the D form. Ends that are not written are not given here. Peptide text beside a SMILES is read from it. Hyp = O=C(O)[C@@H]1C[C@@H](O)CN1
# Tests used:
# mOSCAR = target: T1, mOSCAR (Mus musculus, UniProt Q8VBT3); assay: Solid-phase binding experiment of collagen peptides with mOSCAR-His fusion protein; conditions: peptide coated on 96-well plate, mOSCAR-His 37° C. 3 hours, absorbance at 492 nm
# T1 construct: The extracellular domains of the mOSCAR were amplified by RT-PCR and inserted with expression vectors of His tag fusion proteins; made in house; host or cells: HEK293T cells
# T1 sequence (Q8VBT3 19-231 limits assumed): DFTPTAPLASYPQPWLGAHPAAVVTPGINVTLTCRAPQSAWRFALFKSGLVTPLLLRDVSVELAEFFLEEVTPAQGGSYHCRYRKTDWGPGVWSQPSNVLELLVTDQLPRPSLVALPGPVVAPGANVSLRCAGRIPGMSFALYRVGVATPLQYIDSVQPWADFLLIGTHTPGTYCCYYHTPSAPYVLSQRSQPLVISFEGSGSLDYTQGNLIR
# Method: 1) The extracellular domains of the mOSCAR were amplified by RT-PCR and inserted with expression vectors of His tag fusion proteins. Then, the constructed vectors were transfected into HEK293T cells for expression, and mOSCAR-His fusion protein were purified by ion-exchange chromatography and molecular sieve chromatography.
# 2) Collagen peptides were dissolved with 10 mM acetic acid and wrapped to a 96-well microtitration plate overnight. After being sealed in phosphate buffer containing bovine serum albumin at room temperature for 1 hour, mOSCAR-His fusion protein was added and incubated at 37° C. for 3 hours. Then, horseradish peroxidase-labeled goat anti-mouse IgG antibody that capable of reacting specifically with His added and incubated at room temperature for 1 hour. The binding mOSCAR-His fusion protein was detected by O-phenylenediamine dihydrochloride. The reaction was terminated by 3 M H2SO4, and the absorbance at 492 nm was measured. It was confirmed that the type II collagen peptide (OSC^pep) and 4 segments of type I collagen peptides (A1-1, A1-2-1, A1-4-1, A1-5-3) could bind to the mOSCAR (FIG. 5).
# Primary BMMs [1] = assay: Cytotoxicity experiment, CCK-8 kit; assay type: cell-based, mouse; conditions: 0, 1, 10, 100, 200, 500, 800, 1000, and 1500 μg/mL, 24 and 48 hours
# Method: (§1) 1) Bilateral femurs and tibias of wild-type female mice were aseptically isolated, and bone marrow cells were obtained by repeatedly washing bone marrow cavities with culture medium. After culturing in α-MEM complete medium containing M-CSF (30 ng/mL) for 24-hour, nonadherent cells were suctioned, centrifuged, and resuspended, and then cultured in the α-MEM complete medium containing M-CSF (30 ng/mL) for 3 days to obtain adherent mouse primary bone marrow mononuclear macrophages (osteoclast precursor cells). Osteoclast precursor cells were conducted by M-CSF (50 ng/mL) and RANKL (100 ng/mL) to obtain osteoclast and identified by TRAP staining (FIG. 1A). The expression of the collagen receptor OSCAR on osteoclast precursor cells and osteoclasts were determined by immunofluorescence (FIG. 1B) and Western blot (FIG. 1C).
# 1) Primary BMMs were cultured in vitro according to the method in Part 1 above, the A1-1/A1-4-1 collagen peptide was taken as an example for carrying out the cytotoxicity experiment. Primary BMMs were treated with different concentrations (0, 1, 10, 100, 200, 500, 800, 1000, and 1500 μg/mL) of collagen peptide for 24 and 48 hours, and the cytotoxicity was determined by CCK-8 kit.
# Primary pre-osteoblasts = assay: Osteoblast differentiation, ALP staining; assay type: cell-based, mouse
# Method: 2) After skulls of the wild-type mice were aseptically isolated, cells were isolated by collagenase digestion and nucleated cells were obtained by density gradient centrifugation. Cells were induced to differentiate into osteoblasts by medium containing 10 mM β-sodium glycerophosphate, 50 μM vitamin C and 10^−7 M dexamethasone and identified by ALP staining (FIG. 1D). The expression of the collagen receptor OSCAR on pre-osteoblasts induced for 0th, 7th, 14th, 21st, and 35th day and MLO-Y4 bone cell lines was determined by immunohistochemistry (FIG. 1E) and Western blot (FIG. 1F).
# 4) Primary pre-osteoblasts were cultured in vitro according to the method in Part 1 above. Then, cells were treated with different concentrations of 5 segments of collagen peptides, and induced to differentiate into osteoblast by 10 mM […], 50 μM vitamin C and 10^−7 M dexamethasone at the same time. The effect of the collagen peptides on osteoblast differentiation was verified by ALP staining. It was confirmed that the bone remodeling regulatory peptides could inhibit osteoblast differentiation and bone formation at low concentration and promote osteoblast differentiation and bone formation at high concentration (FIG. 6C). […]
# osteoclasts = assay: Bone resorption of osteoclasts in peptide-primary BMMs-bone slice culture system, WGA staining; assay type: cell-based, mouse
# Text: 3) Different concentrations of bone remodeling regulatory peptides-primary BMMs-bone slice culture system was constructed by using the above-mentioned method, and the cells in the system were induced to differentiate into osteoclasts by M-CSF and RANKL at the same time. The effect of collagen peptides on bone resorption of osteoclasts was verified by wheat germ agglutinin (WGA) staining. It was confirmed that all of the bone remodeling regulatory peptides could promote bone resorption of osteoclasts at low concentration and inhibit bone resorption of osteoclasts at high concentration (FIG. 6B).
# Primary BMMs [2] = assay: Osteoclast differentiation induced by M-CSF and RANKL, TRAP staining; assay type: cell-based, mouse
# Method: as §1
# 2) Primary BMMs were treated with different concentrations of 5 collagen peptides, and induced to differentiate into osteoclasts by M-CSF and RANKL. The effect of different concentrations of collagen peptides on osteoclast differentiation was verified by TRAP staining. It was confirmed that all of the bone remodeling regulatory peptides could promote osteoclast differentiation at low concentration and inhibit osteoclast differentiation at high concentration (FIG. 6A).
Compound,binding to the mOSCAR (mOSCAR),cytotoxicity (Primary BMMs [1]),also measured
"C[C@H](NC(=O)CN)C(=O)N1C[C@H](O)C[C@H]1C(=O)NCC(=O)N1CCC[C@H]1C(=O)N[C@@H](CCC(N)=O)C(=O)NCC(=O)N[C@@H](Cc1ccccc1)C(=O)N[C@@H](CCC(N)=O)C(=O)O [A1-1, Gly-Ala-Pro-Gly-Pro-Gln-Gly-Phe-Gln] (H-GA[Hyp]GPQGFQ-OH)",could bind,no toxic effect,–
"C[C@H](NC(=O)[C@H](Cc1ccccc1)NC(=O)CNC(=O)[C@H](C)NC(=O)[C@@H]1CCCN1C(=O)CNC(=O)[C@@H]1C[C@@H](O)CN1C(=O)[C@@H]1CCCN1C(=O)CN)C(=O)O [A1-4-1, Gly-Pro-Pro-Gly-Pro-Ala-Gly-Phe-Ala] (H-GP[Hyp]GPAGFA-OH)",could bind,no toxic effect,–
Gly-Ala-Pro-Gly-Ala-Pro-Gly-Ser-Gln (GA[Hyp]GA[Hyp]GSQ) [A1-2-1],could bind,–,–
Gly-Ala-Pro-Gly-Pro-Ala-Gly-Phe-Ala (GA[Hyp]GPAGFA) [OSC^pep],could bind,–,concentration that inhibits osteoblast differentiation and bone formation (Primary pre-osteoblasts): < 8000 µg/mL; concentration that promotes osteoblast differentiation and bone formation (Primary pre-osteoblasts): ≥ 8000 µg/mL; concentration that inhibits bone resorption (osteoclasts; high concentration): ≥ 8000 µg/mL; concentration that promotes bone resorption (osteoclasts; low concentration): < 8000 µg/mL; concentration that inhibits osteoclast differentiation (Primary BMMs [2]; high concentration): ≥ 8000 µg/mL; concentration that promotes osteoclast differentiation (Primary BMMs [2]; low concentration): < 8000 µg/mL
Gly-Pro-Pro-Gly-Ala-Thr-Gly-Phe-Pro (GP[Hyp]GATGFP) [A1-5-3],could bind,–,–
